Experimental data from ChEMBL document CHEMBL5241058, “Pyrazole-based analogs as potential antibacterial agents against methicillin-resistance staphylococcus aureus (MRSA) and its SAR elucidation” (Eur J Med Chem, 2021).
In brackets after ≈: the same amount, converted by molar mass.

Experiments:
Assay type in all cases: functional
[1] = system: Staphylococcus aureus; assay: Antimicrobial activity against Methicillin-resistant Staphylococcus aureus assessed as bacterial growth inhibition
[2] = system: Staphylococcus aureus; assay: Antimicrobial activity against Methicillin-resistant Staphylococcus aureus ATCC 43300 assessed as bacterial growth inhibition incubated for 24 hrs by microdilution method; settings: ATCC43300
[3] = system: Staphylococcus aureus; assay: Antimicrobial activity against Methicillin-resistant Staphylococcus aureus CCARM 3506 assessed as bacterial growth inhibition incubated for 24 hrs by ELISA assay
[4] = system: Staphylococcus aureus; assay: Antimicrobial activity against Methicillin-resistant Staphylococcus aureus ATCC 33599 assessed as bacterial growth inhibition
[5] = system: Staphylococcus aureus; assay: Antibiofilm activity against Methicillin-resistant Staphylococcus aureus USA 300 relative to control
[6] = system: Staphylococcus aureus; assay: Antimicrobial activity against vancomycin intermediate-resistant Staphylococcus aureus assessed as bacterial growth inhibition incubated for 24 hrs by microdilution method
[7] = system: Staphylococcus aureus; assay: Antimicrobial activity against Staphylococcus aureus MTCC 442 assessed as bacterial growth inhibition incubated for 24 to 48 hrs; settings: time 24-48 hrs
[8] = system: Staphylococcus aureus; assay: Antimicrobial activity against Methicillin-resistant Staphylococcus aureus ATCC 43300 assessed as bacterial growth inhibition by microdilution method
[9] = system: Staphylococcus aureus; assay: Antimicrobial activity against Staphylococcus aureus MTCC 96 assessed as bacterial growth inhibition incubated for 24 to 48 hrs; settings: time 24-48 hrs
[10] = system: Staphylococcus aureus; assay: Antimicrobial activity against Methicillin-resistant Staphylococcus aureus assessed as bacterial growth inhibition incubated for 24 to 48 hrs by microdilution method; settings: time 24-48 hrs
[11] = system: Staphylococcus aureus; assay: Antimicrobial activity against Methicillin-resistant Staphylococcus aureus ATCC 3167 assessed as bacterial growth inhibition
[12] = system: Pseudomonas aeruginosa; assay: Antimicrobial activity against Pseudomonas aeruginosa ATCC 27853 assessed as bacterial growth inhibition incubated for 18 hrs by microdilution method
[13] = system: Escherichia coli; assay: Antimicrobial activity against Escherichia coli ATCC 8739 assessed as bacterial growth inhibition incubated for 18 hrs by microdilution method
[14] = system: Klebsiella pneumoniae; assay: Antimicrobial activity against Klebsiella pneumoniae ATCC 314588 assessed as bacterial growth inhibition incubated for 18 hrs by microdilution method
[15] = system: Salmonella enterica subsp. enterica; assay: Antimicrobial activity against Salmonella typhimurium […] assessed as bacterial growth inhibition incubated for 18 hrs by microdilution method

CCCCn1ncc2c3c(C#N)c4ccccc4nc3ccc21
MIC [1]: 2 µg/mL (≈ 6.66 µM)

CCCn1ncc2c3c(C#N)c4ccccc4nc3ccc21
MIC [1]: 3 µg/mL (≈ 10.5 µM)

Cc1nn(-c2ccc(C#N)cc2)c2c1C(C(=O)O)CC=C(C(=O)O)N2 (configuration not stated)
MIC [2]: > 500 µg/mL

Cc1nn(-c2ccc(Cl)cc2Cl)c(Oc2ccc(Br)cc2)c1C1N=C(N)NC(NCCc2ccccc2)=N1 (configuration not stated)
MIC [3]: 0.5 µg/mL (≈ 0.815 µM)

O=C1CN(c2nnc(-c3cccc(Br)c3)s2)C(c2cn(-c3ccccc3)nc2-c2cccc([N+](=O)[O-])c2)S1 (configuration not stated)
MBC [1]: 156 µg/mL (≈ 258 µM)

CN[C@H](CC(C)C)C(=O)N[C@H]1C(=O)N[C@@H](CC(N)=O)C(=O)N[C@H]2C(=O)N[C@H]3C(=O)N[C@H](C(=O)N[C@H](C(=O)O)c4cc(O)cc(O)c4-c4cc3ccc4O)[C@H](O)c3ccc(c(Cl)c3)Oc3cc2cc(c3O[C@@H]2O[C@H](CO)[C@@H](O)[C@H](O)[C@H]2O[C@H]2C[C@](C)(N)[C@H](O)[C@H](C)O2)Oc2ccc(cc2Cl)[C@H]1O [VANCOMYCIN]
MBC [4]: 6.25 µg/mL (≈ 4.31 µM) | MIC [4]: 3.12 µg/mL (≈ 2.16 µM) | Activity [5]: 18% | MIC [6]: < 0.125 µg/mL

O=C(N[C@H](CO)[C@H](O)c1ccc([N+](=O)[O-])cc1)C(Cl)Cl [CHLORAMPHENICOL]
MIC [7]: 50 µg/mL (≈ 155 µM) | MIC [8]: 50 µg/mL | MIC [9]: 50 µg/mL (≈ 155 µM)

Cc1cc(O)c(C(=O)c2cc(C(F)(F)F)n[nH]2)cc1Cl
MIC [6]: < 0.125 µg/mL

O=C(c1cc(C(F)(F)F)n[nH]1)c1cccc(Br)c1O
MIC [6]: < 0.125 µg/mL

Cc1onc(-c2ccccc2Cl)c1C(=O)N[C@@H]1C(=O)N2[C@@H]1SC(C)(C)[C@@H]2C(=O)O [CLOXACILLIN]
MIC [10]: 94 µg/mL (≈ 216 µM)

Cc1nn(-c2ccc(Cl)cc2Cl)c(Oc2ccc(Cl)cc2)c1C1N=C(N)NC(NCCc2ccccc2)=N1 (configuration not stated)
MIC [3]: 0.5 µg/mL (≈ 0.879 µM)

NC(=O)c1cnn(-c2ccc([N+](=O)[O-])cc2[N+](=O)[O-])c1NC(=O)c1cccc(Cl)c1
MIC [10]: 45.3 µg/mL (≈ 105 µM)

CC(=O)Nc1c(C(N)=O)cnn1-c1ccc([N+](=O)[O-])cc1[N+](=O)[O-]
MIC [10]: 99.4 µg/mL (≈ 297 µM)

Cc1ccc(C(=O)Nc2c(C(N)=O)cnn2-c2ccc([N+](=O)[O-])cc2[N+](=O)[O-])cc1
MIC [10]: 42 µg/mL (≈ 102 µM)

O=C1S/C(=C\c2cn(-c3ccccc3)nc2-c2cccc([N+](=O)[O-])c2)C(=O)N1CCCn1ccc2ccccc21
MIC [8]: 50 µg/mL

CCCn1ncc2c3c(C#N)c4ccc(Br)cc4nc3ccc21
MIC [1]: 1 µg/mL (≈ 2.74 µM)

Cc1cc(NS(=O)(=O)c2ccc(N)cc2)no1 [SULFAMETHOXAZOLE]
MIC [1]: 16 µg/mL (≈ 63.2 µM)

O=C(O)c1ccc(-n2cc(/C=N/c3ccc(Cl)cc3Cl)c(-c3ccc4ccccc4c3)n2)cc1
MBC [4]: 6.25 µg/mL (≈ 12.9 µM) | MIC [4]: 0.78 µg/mL (≈ 1.6 µM)

C/C(=N/NC(=N)N)c1cnn(-c2ccc(C#Cc3ccccc3)cc2)c1C
Activity [5]: 20%

Cn1ncc2c3c(C#N)c4ccccc4nc3ccc21
MIC [1]: 6 µg/mL (≈ 23.2 µM)

O=C(/C=C/c1ccc([N+](=O)[O-])cc1)N1N=C(c2ccncc2)OC1c1cn(-c2ccccc2)nc1-c1ccc(F)cc1 (configuration not stated)
MIC [7]: 12.5 µg/mL (≈ 22.3 µM) | MIC [9]: 12.5 µg/mL (≈ 22.3 µM)

COc1cc(/C=C/c2cc(/C=C/c3ccc(OCC(=O)N[C@H](C)c4ccccc4)c(OC)c3)[nH]n2)ccc1OCC(=O)N[C@H](C)c1ccccc1
MIC [11]: 10 µM (≈ 6.87 µg/mL)

O=C(/C=C/c1ccc(F)cc1)N1N=C(c2ccncc2)OC1c1cn(-c2ccccc2)nc1-c1ccc(F)cc1 (configuration not stated)
MIC [7]: 6.25 µg/mL (≈ 11.7 µM) | MIC [9]: 6.25 µg/mL (≈ 11.7 µM)

CC1(C)S[C@@H]2[C@H](NC(=O)[C@H](N)c3ccccc3)C(=O)N2[C@H]1C(=O)O [AMPICILLIN]
MIC [1]: 62 µg/mL (≈ 177 µM)

O=C(/C=C/c1cccc([N+](=O)[O-])c1)N1N=C(c2ccncc2)OC1c1cn(-c2ccccc2)nc1-c1ccc(F)cc1 (configuration not stated)
MIC [7]: > 50 µg/mL | MIC [9]: > 50 µg/mL

O=C(c1cc(C(F)(F)F)n[nH]1)c1cc(Cl)ccc1O
MIC [6]: < 0.125 µg/mL

Cc1ccc(Oc2c(C3N=C(N)NC(NCCc4ccccc4)=N3)c(C)nn2-c2ccc(Cl)cc2Cl)c(C)c1 (configuration not stated)
MIC [3]: 0.5 µg/mL (≈ 0.889 µM)

CCCC#Cc1ccc(-n2ncc(/C(C)=N\NC(=N)N)c2C)cc1
Activity [5]: 74%

COc1cccc(-c2nn(-c3ccccc3)cc2-c2nc3ccccn3c2Cc2ccccc2)c1OC
MIC [12]: < 1 µg/mL | MIC [13]: < 1 µg/mL | MIC [14]: < 1 µg/mL | MIC [15]: < 1 µg/mL

Cc1nn(-c2ccc(Cl)cc2)c2c1C(C(=O)O)CC=C(C(=O)O)N2 (configuration not stated)
MIC [2]: > 500 µg/mL

CCn1ncc2c3c(C#N)c4ccccc4nc3ccc21
MIC [1]: 3 µg/mL (≈ 11 µM)

Cc1nn(-c2ccccc2)c2c1C(C(=O)O)CC=C(C(=O)O)N2 (configuration not stated)
MIC [2]: > 500 µg/mL

Cc1nn(-c2ccc(Cl)cc2Cl)c(Oc2cccc(C(F)(F)F)c2)c1C1N=C(N)NC(NCCc2ccccc2)=N1 (configuration not stated)
MIC [3]: 0.5 µg/mL (≈ 0.83 µM)

COc1cc(Cc2cnc(N)nc2N)cc(OC)c1OC [TRIMETHOPRIM]
MIC [3]: 4 µg/mL (≈ 13.8 µM)

NC(=O)c1cnn(-c2ccc([N+](=O)[O-])cc2[N+](=O)[O-])c1NC(=O)c1ccc(Br)cc1
MIC [10]: 29.4 µg/mL (≈ 61.9 µM)
